Values of other authors as cited in patent US20250340636A1, “ANTIBODIES TARGETING L1CAM AND USES THEREOF” (MEMORIAL SLOAN-KETTERING CANCER CENTER, priority 2023, published 2025).

Conditions: free drug, mice (Quintieri et al. 2005); cited from earlier work

COc1cccc2c1C(=O)c1c(O)c3c(c(O)c1C2=O)C[C@@](O)(C(=O)CO)C[C@@H]3O[C@H]1C[C@H]2[C@H](O[C@@H]3[C@@H](OC)OCCN32)[C@H](C)O1 [PNU-159682]
maximum tolerated dose: 0.015 mg/kg
